Laboratory results reported in PubChem BioAssay (NCI).
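Compound exposure: 48 hours, 5 concentrations, 96-well plates. The concentration for full growth arrest is given as TGI.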

Columns and labels:
Assay in all cases: inhibition of tumour cell growth, NCI panel, 48 h
UACC-257 melanoma = tested on: UACC-257 melanoma
NCI-H460 lung = tested on: NCI-H460 lung
EKVX NSCLC = tested on: EKVX NSCLC
TK-10 renal = tested on: TK-10 renal
SK-MEL-28 melanoma = tested on: SK-MEL-28 melanoma
OVCAR-5 ovarian = tested on: OVCAR-5 ovarian
786-0 renal = tested on: 786-0 renal
A549 NSCLC = tested on: A549 NSCLC
K-562 leukemia = tested on: K-562 leukemia
HOP-92 NSCLC = tested on: HOP-92 NSCLC
A498 renal = tested on: A498 renal
SNB-75 CNS = tested on: SNB-75 CNS
HOP-18 NSCLC = tested on: HOP-18 NSCLC
RPMI-8226 leukemia = tested on: RPMI-8226 leukemia
M14 melanoma = tested on: M14 melanoma
LXFL 529 NSCLC = tested on: LXFL 529 NSCLC
CCRF-CEM leukemia = tested on: CCRF-CEM leukemia
KM20L2 colon = tested on: KM20L2 colon
SW-620 colon = tested on: SW-620 colon
SK-MEL-5 melanoma = tested on: SK-MEL-5 melanoma
XF 498 CNS = tested on: XF 498 CNS
OVCAR-4 ovarian = tested on: OVCAR-4 ovarian
UACC-62 melanoma = tested on: UACC-62 melanoma
U251 CNS = tested on: U251 CNS
KM12 colon = tested on: KM12 colon
COLO 205 colon = tested on: COLO 205 colon
DMS 273 small cell lung = tested on: DMS 273 small cell lung
HL-60(TB) leukemia = tested on: HL-60(TB) leukemia
HCT-116 colon = tested on: HCT-116 colon
RXF 393 renal = tested on: RXF 393 renal
SF-295 CNS = tested on: SF-295 CNS
MOLT-4 leukemia = tested on: MOLT-4 leukemia
NCI-H522 lung = tested on: NCI-H522 lung
HOP-62 NSCLC = tested on: HOP-62 NSCLC
LOX IMVI melanoma = tested on: LOX IMVI melanoma
SF-268 CNS = tested on: SF-268 CNS
DLD-1 colon = tested on: DLD-1 colon
HT29 colon = tested on: HT29 colon
SNB-19 CNS = tested on: SNB-19 CNS
HCT-15 colon = tested on: HCT-15 colon
NCI-H226 lung = tested on: NCI-H226 lung
RXF-631 renal = tested on: RXF-631 renal
DMS 114 small cell lung = tested on: DMS 114 small cell lung
IGROV1 ovarian = tested on: IGROV1 ovarian
SN12C renal = tested on: SN12C renal
NCI-H23 lung = tested on: NCI-H23 lung
UO-31 renal = tested on: UO-31 renal
SF-539 CNS = tested on: SF-539 CNS
ACHN renal = tested on: ACHN renal
CAKI-1 renal = tested on: CAKI-1 renal
OVCAR-8 ovarian = tested on: OVCAR-8 ovarian
OVCAR-3 ovarian = tested on: OVCAR-3 ovarian
SNB-78 CNS = tested on: SNB-78 CNS
MALME-3M melanoma = tested on: MALME-3M melanoma
SK-MEL-2 melanoma = tested on: SK-MEL-2 melanoma
T-47D breast = tested on: T-47D breast
BT-549 breast = tested on: BT-549 breast
MDA-MB-435 = tested on: MDA-MB-435
MCF7 breast = tested on: MCF7 breast
MDA-MB-231 breast = tested on: MDA-MB-231 breast
DU-145 prostate = tested on: DU-145 prostate
PC-3 prostate = tested on: PC-3 prostate
SK-OV-3 ovarian = tested on: SK-OV-3 ovarian
SR leukemia = tested on: SR leukemia
M19-MEL melanoma = tested on: M19-MEL melanoma
HCC-2998 colon = tested on: HCC-2998 colon

Structure (SMILES): COc1cc(/C=C/c2ccncc2)cc(OC)c1OC
- TGI (UACC-257 melanoma): > 100 µM
- TGI (NCI-H460 lung): > 100 µM
- TGI (EKVX NSCLC): > 100 µM
- TGI (TK-10 renal): > 100 µM
- TGI (SK-MEL-28 melanoma): > 100 µM
- TGI (OVCAR-5 ovarian): 97.9 µM
- TGI (786-0 renal): > 100 µM
- TGI (A549 NSCLC): > 100 µM
- TGI (K-562 leukemia): > 100 µM
- TGI (HOP-92 NSCLC): > 100 µM
- TGI (A498 renal): > 100 µM
- TGI (SNB-75 CNS): > 100 µM
- TGI (HOP-18 NSCLC): > 100 µM
- TGI (RPMI-8226 leukemia): > 100 µM
- TGI (M14 melanoma): > 100 µM
- TGI (LXFL 529 NSCLC): > 100 µM
- TGI (CCRF-CEM leukemia): > 100 µM
- TGI (KM20L2 colon): > 100 µM
- TGI (SW-620 colon): > 100 µM
- TGI (SK-MEL-5 melanoma): > 100 µM
- TGI (XF 498 CNS): 91.3 µM
- TGI (OVCAR-4 ovarian): > 100 µM
- TGI (UACC-62 melanoma): > 100 µM
- TGI (U251 CNS): > 100 µM
- TGI (KM12 colon): > 100 µM
- TGI (COLO 205 colon): > 100 µM
- TGI (DMS 273 small cell lung): > 100 µM
- TGI (HL-60(TB) leukemia): 97.8 µM
- TGI (HCT-116 colon): > 100 µM
- TGI (RXF 393 renal): 99.2 µM
- TGI (SF-295 CNS): > 100 µM
- TGI (MOLT-4 leukemia): > 100 µM
- TGI (NCI-H522 lung): > 100 µM
- TGI (HOP-62 NSCLC): > 100 µM
- TGI (LOX IMVI melanoma): > 100 µM
- TGI (SF-268 CNS): > 100 µM
- TGI (DLD-1 colon): > 100 µM
- TGI (HT29 colon): > 100 µM
- TGI (SNB-19 CNS): > 100 µM
- TGI (HCT-15 colon): > 100 µM
- TGI (NCI-H226 lung): > 100 µM
- TGI (RXF-631 renal): > 100 µM
- TGI (DMS 114 small cell lung): > 100 µM
- TGI (IGROV1 ovarian): > 100 µM
- TGI (SN12C renal): > 100 µM
- TGI (NCI-H23 lung): > 100 µM
- TGI (UO-31 renal): 83.1 µM
- TGI (SF-539 CNS): > 100 µM
- TGI (ACHN renal): > 100 µM
- TGI (CAKI-1 renal): > 100 µM
- TGI (OVCAR-8 ovarian): > 100 µM
- TGI (OVCAR-3 ovarian): > 100 µM
- TGI (SNB-78 CNS): > 100 µM
- TGI (MALME-3M melanoma): > 100 µM

Structure (SMILES): COc1c(C=O)c2c(c(OC)c1OC)-c1ccc(OC)c(=O)cc1[C@@H](NC(C)=O)CC2
- TGI (UACC-257 melanoma): > 88.8 µM
- TGI (NCI-H460 lung): 18.7 µM
- TGI (EKVX NSCLC): > 100 µM
- TGI (TK-10 renal): > 100 µM
- TGI (SK-MEL-28 melanoma): > 100 µM
- TGI (OVCAR-5 ovarian): > 100 µM
- TGI (786-0 renal): > 75.6 µM
- TGI (SK-MEL-2 melanoma): 2.57 µM
- TGI (A549 NSCLC): > 100 µM
- TGI (K-562 leukemia): > 100 µM
- TGI (HOP-92 NSCLC): 7.18 µM
- TGI (A498 renal): 14.8 µM
- TGI (T-47D breast): > 100 µM
- TGI (BT-549 breast): > 100 µM
- TGI (SNB-75 CNS): > 100 µM
- TGI (HOP-18 NSCLC): > 100 µM
- TGI (RPMI-8226 leukemia): 47.2 µM
- TGI (M14 melanoma): > 25.2 µM
- TGI (LXFL 529 NSCLC): > 100 µM
- TGI (CCRF-CEM leukemia): > 100 µM
- TGI (KM20L2 colon): 0.218 µM
- TGI (SW-620 colon): > 100 µM
- TGI (SK-MEL-5 melanoma): 0.272 µM
- TGI (XF 498 CNS): 37 µM
- TGI (MDA-MB-435): 24.6 µM
- TGI (OVCAR-4 ovarian): > 100 µM
- TGI (MCF7 breast): 28.4 µM
- TGI (UACC-62 melanoma): > 92.3 µM
- TGI (U251 CNS): > 25.5 µM
- TGI (KM12 colon): 0.632 µM
- TGI (COLO 205 colon): 0.574 µM
- TGI (DMS 273 small cell lung): > 100 µM
- TGI (HL-60(TB) leukemia): 0.0717 µM
- TGI (MDA-MB-231 breast): > 100 µM
- TGI (HCT-116 colon): 1.05 µM
- TGI (RXF 393 renal): > 56.3 µM
- TGI (SF-295 CNS): 0.449 µM
- TGI (DU-145 prostate): > 100 µM
- TGI (MOLT-4 leukemia): > 17.8 µM
- TGI (PC-3 prostate): > 100 µM
- TGI (HOP-62 NSCLC): > 100 µM
- TGI (LOX IMVI melanoma): 49.8 µM
- TGI (SF-268 CNS): 30.3 µM
- TGI (SK-OV-3 ovarian): 23.1 µM
- TGI (SR leukemia): > 100 µM
- TGI (DLD-1 colon): > 100 µM
- TGI (M19-MEL melanoma): > 100 µM
- TGI (HT29 colon): > 8.89 µM
- TGI (SNB-19 CNS): > 92.8 µM
- TGI (HCT-15 colon): > 100 µM
- TGI (NCI-H226 lung): 4.17 µM
- TGI (RXF-631 renal): 18.2 µM
- TGI (HCC-2998 colon): 34.4 µM
- TGI (DMS 114 small cell lung): 0.0364 µM
- TGI (IGROV1 ovarian): 76.6 µM
- TGI (SN12C renal): > 100 µM
- TGI (NCI-H23 lung): 3.47 µM
- TGI (UO-31 renal): > 100 µM
- TGI (SF-539 CNS): 0.0644 µM
- TGI (ACHN renal): > 100 µM
- TGI (CAKI-1 renal): > 30.9 µM
- TGI (OVCAR-8 ovarian): > 14.4 µM
- TGI (OVCAR-3 ovarian): 1.09 µM
- TGI (SNB-78 CNS): > 67.6 µM
- TGI (MALME-3M melanoma): > 100 µM
